# Measurements as given in patent US10562844B2, “HYPDH inhibitors and methods of use for the treatment of kidney stones” (Wake Forest University Health Sciences, priority 2015, dated 2020).
# Biological target: T1, human HYPDH (Homo sapiens (Human), UniProt Q9UF12)
# Assay: HYPDH inhibition activity assay (inhibitor pre-incubated 5 min, reaction started with Hyp)
# Type: biochemical
# Conditions: inhibitor pre-incubated with HYPDH for 5 min; reaction started by addition of 600 mM Hyp
# Source text: (§1) Despite the identification of the Hyp pathway in rat and bovine kidneys and livers over 50 years ago, very little is known about human HYPDH (also known as PRODH2 and hydroxyproline oxidase, HPOX, in the literature) (Miyata et al., Proc Natl Acad Sci USA 111, 14406-14411, 2014; Efron et al., New Engl J Med 272, 1299-1309; Pelkonen et al., New Engl J Med 283, 451-456, 1970). In an effort to biochemically and structurally characterize human HYPDH, we have evaluated numerous expression constructs (>15) in Escherichia coli with N- and C-terminal truncations. […] Only the constructs containing the residues 147-515 and 156-515 were >96% loaded with FAD+ and active.
# Each inhibitor was pre-incubated with HYPDH for 5 min, and the reaction started by the addition of 600 mM Hyp. A range of concentrations was tested in order to determine the IC50 value. Table 1 lists the potency of the compounds.
# T1 sequence (Q9UF12 71-439 limits assumed): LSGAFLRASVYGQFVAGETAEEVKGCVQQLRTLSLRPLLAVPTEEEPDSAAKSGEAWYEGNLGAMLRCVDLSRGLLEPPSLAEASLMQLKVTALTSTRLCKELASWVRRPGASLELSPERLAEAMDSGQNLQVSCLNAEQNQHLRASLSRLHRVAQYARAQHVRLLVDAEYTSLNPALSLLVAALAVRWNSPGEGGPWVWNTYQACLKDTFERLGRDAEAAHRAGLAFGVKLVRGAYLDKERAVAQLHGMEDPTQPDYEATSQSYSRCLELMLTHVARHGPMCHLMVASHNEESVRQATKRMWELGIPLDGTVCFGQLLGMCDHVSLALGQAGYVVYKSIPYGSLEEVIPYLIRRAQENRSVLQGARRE
row,Structure (SMILES),IC50 [µM]
1,O=C(O)C1CCC(O)C1 (stereo not drawn) [Compound 5],2100 ± 100
2,O=C(O)C1CC[C@@H](O)C1 (stereo partly drawn) [Compound 6],> 10000
3,O=C(O)C1CC[C@H](O)C1 (stereo partly drawn) [Compound 7],600 ± 10
4,O=C(O)C[C@H]1CC[C@H](O)C1 [Compound 8],480 ± 10

# The next lines start with the values.
row,IC50 [µM],Structure (SMILES)
1,630 ± 10,N[C@H]1CCC(C(=O)O)C1 (stereo partly drawn) [Compound 9]
2,370 ± 10,O=C1CC[C@@H](C(=O)O)C1 [Compound 11]
3,1500 ± 100,O=C(O)C1CCCO1 (stereo not drawn) [Compound 2]
4,380 ± 10,O=C1CCC(C(=O)O)C1 (stereo not drawn) [Compound 10]

# Biological target: T1, human HYPDH
# Assay: Anaerobic titration of the FAD+ spectrum of recombinant HYPDH
# Type: binding
# Conditions: not given
# Source text: as §1
row,Structure (SMILES),Kd [µM]
1,"O=C(O)C1CC(O)CN1 (stereo not drawn) [Hyp, Hydroxyproline]",125
